Experimental data reported in ChEMBL document CHEMBL5723582, “Data for DCP probe T-10430” (2024).

How the values were obtained:
[1] = target: Vasoactive intestinal polypeptide receptor 2 (Homo sapiens) (UniProt P41587); experiment: RLU of VIPR2 at 1.0 µM in the […] PRESTO-Tango GPCRome screen; details: Compound concentration 1.0 uM
[2] = target: Melanocortin receptor 5 (Homo sapiens) (UniProt P33032); experiment: RLU of MC5R at 1.0 µM in the […] PRESTO-Tango GPCRome screen; details: Compound concentration 1.0 uM
[3] = target: G-protein coupled receptor 151 (Homo sapiens) (UniProt Q8TDV0); experiment: RLU of GPR151 at 1.0 µM in the […] PRESTO-Tango GPCRome screen; details: Compound concentration 1.0 uM
Sequence of G-protein coupled receptor 151 (Homo sapiens) (Q8TDV0 whole entry): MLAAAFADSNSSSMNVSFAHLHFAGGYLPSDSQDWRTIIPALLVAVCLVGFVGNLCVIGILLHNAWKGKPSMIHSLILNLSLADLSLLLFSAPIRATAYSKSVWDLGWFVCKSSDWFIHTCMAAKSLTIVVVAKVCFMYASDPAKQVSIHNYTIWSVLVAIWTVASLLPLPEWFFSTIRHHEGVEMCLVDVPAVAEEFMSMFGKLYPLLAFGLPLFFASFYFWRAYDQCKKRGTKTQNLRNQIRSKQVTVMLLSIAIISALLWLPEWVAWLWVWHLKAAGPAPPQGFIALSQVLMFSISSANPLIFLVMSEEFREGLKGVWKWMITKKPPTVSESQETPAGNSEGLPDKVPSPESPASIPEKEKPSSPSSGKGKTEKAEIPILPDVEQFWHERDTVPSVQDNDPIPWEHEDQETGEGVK

[4] = target: Glucagon receptor (Homo sapiens) (UniProt P47871); experiment: RLU of GCGR at 1.0 µM in the […] PRESTO-Tango GPCRome screen; details: Compound concentration 1.0 uM
[5] = target: D(2) dopamine receptor (Homo sapiens) (UniProt P14416); experiment: RLU of DRD2 at 1.0 µM in the […] PRESTO-Tango GPCRome screen; details: Compound concentration 1.0 uM
Sequence of D(2) dopamine receptor (Homo sapiens) (P14416 whole entry): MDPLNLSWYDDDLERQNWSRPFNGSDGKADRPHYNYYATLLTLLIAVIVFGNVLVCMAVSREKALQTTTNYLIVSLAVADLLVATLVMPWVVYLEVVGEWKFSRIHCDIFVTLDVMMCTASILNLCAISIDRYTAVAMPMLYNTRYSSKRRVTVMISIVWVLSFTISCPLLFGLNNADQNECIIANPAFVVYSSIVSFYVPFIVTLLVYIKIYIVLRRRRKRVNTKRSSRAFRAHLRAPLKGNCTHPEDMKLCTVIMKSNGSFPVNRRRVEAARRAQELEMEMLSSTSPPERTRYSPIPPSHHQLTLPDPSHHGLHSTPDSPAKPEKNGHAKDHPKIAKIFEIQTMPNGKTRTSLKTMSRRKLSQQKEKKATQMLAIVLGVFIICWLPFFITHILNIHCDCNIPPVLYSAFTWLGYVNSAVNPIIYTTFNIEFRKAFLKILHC

[6] = target: Type-1 angiotensin II receptor (Homo sapiens) (UniProt P30556); experiment: RLU of AGTR1 at 1.0 µM in the […] PRESTO-Tango GPCRome screen; details: Compound concentration 1.0 uM
[7] = target: C-X-C chemokine receptor type 1 (Homo sapiens) (UniProt P25024); experiment: RLU of CXCR1 at 1.0 µM in the […] PRESTO-Tango GPCRome screen; details: Compound concentration 1.0 uM
[8] = target: C-C chemokine receptor type 10 (Homo sapiens) (UniProt P46092); experiment: RLU of CCR10 at 1.0 µM in the […] PRESTO-Tango GPCRome screen; details: Compound concentration 1.0 uM
Sequence of C-C chemokine receptor type 10 (Homo sapiens) (P46092 whole entry): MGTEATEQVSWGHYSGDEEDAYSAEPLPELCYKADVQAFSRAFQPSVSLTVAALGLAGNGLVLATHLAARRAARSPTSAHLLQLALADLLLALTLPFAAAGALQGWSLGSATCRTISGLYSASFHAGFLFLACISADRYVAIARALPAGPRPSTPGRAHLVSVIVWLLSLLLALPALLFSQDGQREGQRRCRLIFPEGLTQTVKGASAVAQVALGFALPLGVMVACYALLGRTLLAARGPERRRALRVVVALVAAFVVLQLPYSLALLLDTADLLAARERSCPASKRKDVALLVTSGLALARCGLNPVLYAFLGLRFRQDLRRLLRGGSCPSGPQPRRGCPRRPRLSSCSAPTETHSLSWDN

[9] = target: P2Y purinoceptor 1 (Homo sapiens) (UniProt P47900); experiment: RLU of P2RY1 at 1.0 µM in the […] PRESTO-Tango GPCRome screen; details: Compound concentration 1.0 uM
[10] = target: D(4) dopamine receptor (Homo sapiens) (UniProt P21917); experiment: RLU of DRD4 at 1.0 µM in the […] PRESTO-Tango GPCRome screen; details: Compound concentration 1.0 uM
Sequence of D(4) dopamine receptor (Homo sapiens) (P21917 whole entry): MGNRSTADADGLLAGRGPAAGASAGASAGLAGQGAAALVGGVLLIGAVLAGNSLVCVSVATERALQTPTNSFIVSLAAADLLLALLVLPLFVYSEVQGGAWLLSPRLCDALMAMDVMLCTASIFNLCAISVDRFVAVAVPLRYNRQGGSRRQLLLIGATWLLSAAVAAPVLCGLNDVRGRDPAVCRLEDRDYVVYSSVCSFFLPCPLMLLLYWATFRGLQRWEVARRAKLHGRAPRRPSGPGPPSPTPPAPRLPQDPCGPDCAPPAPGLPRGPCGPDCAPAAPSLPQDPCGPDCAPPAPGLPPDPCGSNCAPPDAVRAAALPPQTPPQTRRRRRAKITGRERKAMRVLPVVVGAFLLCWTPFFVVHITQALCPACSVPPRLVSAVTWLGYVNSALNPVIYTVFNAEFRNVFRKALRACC

[11] = target: Gamma-aminobutyric acid type B receptor subunit 1 (Homo sapiens) (UniProt Q9UBS5); experiment: RLU of GABBR1 at 1.0 µM in the […] PRESTO-Tango GPCRome screen; details: Compound concentration 1.0 uM
[12] = target: Hydroxycarboxylic acid receptor 3 (Homo sapiens) (UniProt P49019); experiment: RLU of HCA3 at 1.0 µM in the Aequorin PRESTO-Tango GPCRome screen; details: Compound concentration 1.0 uM
[13] = target: 5-hydroxytryptamine receptor 1B (Homo sapiens) (UniProt P28222); experiment: RLU of HTR1B at 1.0 µM in the Aequorin PRESTO-Tango GPCRome screen; details: Compound concentration 1.0 uM
Sequence of 5-hydroxytryptamine receptor 1B (Homo sapiens) (P28222 whole entry): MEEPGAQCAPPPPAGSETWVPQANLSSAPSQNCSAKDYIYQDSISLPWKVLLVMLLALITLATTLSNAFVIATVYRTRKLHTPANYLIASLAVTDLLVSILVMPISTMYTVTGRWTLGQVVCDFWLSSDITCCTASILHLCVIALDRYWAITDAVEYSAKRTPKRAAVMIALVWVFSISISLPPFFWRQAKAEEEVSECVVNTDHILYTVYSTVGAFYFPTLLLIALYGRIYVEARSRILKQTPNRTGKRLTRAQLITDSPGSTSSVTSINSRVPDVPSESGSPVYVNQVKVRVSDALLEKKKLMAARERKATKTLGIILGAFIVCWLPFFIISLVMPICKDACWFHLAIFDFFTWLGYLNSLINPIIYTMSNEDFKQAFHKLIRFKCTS

[14] = target: C-C chemokine receptor type 7 (Homo sapiens) (UniProt P32248); experiment: RLU of CCR7 at 1.0 µM in the […] PRESTO-Tango GPCRome screen; details: Compound concentration 1.0 uM
Sequence of C-C chemokine receptor type 7 (Homo sapiens) (P32248 whole entry): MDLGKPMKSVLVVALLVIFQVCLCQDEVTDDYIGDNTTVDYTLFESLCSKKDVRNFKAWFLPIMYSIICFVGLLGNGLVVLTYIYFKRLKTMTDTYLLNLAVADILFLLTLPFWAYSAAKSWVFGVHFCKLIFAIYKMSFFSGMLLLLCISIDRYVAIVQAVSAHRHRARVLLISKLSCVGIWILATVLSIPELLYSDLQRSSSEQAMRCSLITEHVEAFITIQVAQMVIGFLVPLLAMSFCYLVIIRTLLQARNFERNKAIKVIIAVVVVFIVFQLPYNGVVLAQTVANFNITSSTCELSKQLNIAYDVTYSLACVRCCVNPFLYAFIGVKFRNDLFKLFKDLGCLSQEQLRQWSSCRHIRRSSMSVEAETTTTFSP

[15] = target: Melanin-concentrating hormone receptor 1 (Homo sapiens) (UniProt Q99705); experiment: RLU of MCHR1 at 1.0 µM in the […] PRESTO-Tango GPCRome screen; details: Compound concentration 1.0 uM
[16] = target: D(1B) dopamine receptor (Homo sapiens) (UniProt P21918); experiment: RLU of DRD5 at 1.0 µM in the […] PRESTO-Tango GPCRome screen; details: Compound concentration 1.0 uM
[17] = target: Uracil nucleotide/cysteinyl leukotriene receptor (Homo sapiens) (UniProt Q13304); experiment: RLU of GPR17 at 1.0 µM in the […] PRESTO-Tango GPCRome screen; details: Compound concentration 1.0 uM
[18] = target: Gastrin-releasing peptide receptor (Homo sapiens) (UniProt P30550); experiment: RLU of GRPR at 1.0 µM in the Aequorin PRESTO-Tango GPCRome screen; details: Compound concentration 1.0 uM
[19] = target: G-protein coupled receptor 26 (Homo sapiens) (UniProt Q8NDV2); experiment: RLU of GPR26 at 1.0 µM in the […] PRESTO-Tango GPCRome screen; details: Compound concentration 1.0 uM
[20] = target: Adhesion G-protein coupled receptor G5 (Homo sapiens) (UniProt Q8IZF4); experiment: RLU of GPR114 at 1.0 µM in the […] PRESTO-Tango GPCRome screen; details: Compound concentration 1.0 uM
[21] = target: Gastric inhibitory polypeptide receptor (Homo sapiens) (UniProt P48546); experiment: RLU of GIPR at 1.0 µM in the […] PRESTO-Tango GPCRome screen; details: Compound concentration 1.0 uM
Sequence of Gastric inhibitory polypeptide receptor (Homo sapiens) (P48546 whole entry): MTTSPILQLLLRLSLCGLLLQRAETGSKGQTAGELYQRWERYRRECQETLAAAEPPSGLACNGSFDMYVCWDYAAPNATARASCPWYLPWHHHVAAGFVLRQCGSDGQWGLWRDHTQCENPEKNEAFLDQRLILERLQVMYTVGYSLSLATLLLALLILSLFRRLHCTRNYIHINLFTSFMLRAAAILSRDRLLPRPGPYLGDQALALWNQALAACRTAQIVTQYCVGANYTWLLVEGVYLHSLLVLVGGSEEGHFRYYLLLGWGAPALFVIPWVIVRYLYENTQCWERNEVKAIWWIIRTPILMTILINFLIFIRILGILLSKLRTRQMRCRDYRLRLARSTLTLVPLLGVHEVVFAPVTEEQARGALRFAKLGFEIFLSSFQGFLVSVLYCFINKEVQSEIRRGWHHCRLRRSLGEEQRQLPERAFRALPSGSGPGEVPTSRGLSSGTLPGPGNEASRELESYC

[22] = target: Adhesion G protein-coupled receptor A3 (Homo sapiens) (UniProt Q8IWK6); experiment: RLU of GPR125 at 1.0 µM in the […] PRESTO-Tango GPCRome screen; details: Compound concentration 1.0 uM
[23] = target: Probable G-protein coupled receptor 148 (Homo sapiens) (UniProt Q8TDV2); experiment: RLU of GPR148 at 1.0 µM in the […] PRESTO-Tango GPCRome screen; details: Compound concentration 1.0 uM
[24] = target: Secretin receptor (Homo sapiens) (UniProt P47872); experiment: RLU of SCTR at 1.0 µM in the […] PRESTO-Tango GPCRome screen; details: Compound concentration 1.0 uM
Sequence of Secretin receptor (Homo sapiens) (P47872 whole entry): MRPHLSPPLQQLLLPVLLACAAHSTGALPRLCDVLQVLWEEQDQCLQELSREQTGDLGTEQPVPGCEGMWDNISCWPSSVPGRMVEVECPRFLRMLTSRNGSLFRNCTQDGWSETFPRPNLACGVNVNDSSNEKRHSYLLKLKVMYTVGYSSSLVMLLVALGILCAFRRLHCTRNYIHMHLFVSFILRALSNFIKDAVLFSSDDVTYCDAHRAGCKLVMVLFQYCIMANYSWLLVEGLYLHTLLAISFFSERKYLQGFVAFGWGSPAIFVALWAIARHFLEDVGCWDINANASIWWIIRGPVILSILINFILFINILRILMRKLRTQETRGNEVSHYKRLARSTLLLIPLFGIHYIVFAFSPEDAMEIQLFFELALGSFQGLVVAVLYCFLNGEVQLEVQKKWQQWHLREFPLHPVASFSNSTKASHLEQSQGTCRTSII

[25] = target: Probable G-protein coupled receptor 19 (Homo sapiens) (UniProt Q15760); experiment: RLU of GPR19 at 1.0 µM in the […] PRESTO-Tango GPCRome screen; details: Compound concentration 1.0 uM
Sequence of Probable G-protein coupled receptor 19 (Homo sapiens) (Q15760 whole entry): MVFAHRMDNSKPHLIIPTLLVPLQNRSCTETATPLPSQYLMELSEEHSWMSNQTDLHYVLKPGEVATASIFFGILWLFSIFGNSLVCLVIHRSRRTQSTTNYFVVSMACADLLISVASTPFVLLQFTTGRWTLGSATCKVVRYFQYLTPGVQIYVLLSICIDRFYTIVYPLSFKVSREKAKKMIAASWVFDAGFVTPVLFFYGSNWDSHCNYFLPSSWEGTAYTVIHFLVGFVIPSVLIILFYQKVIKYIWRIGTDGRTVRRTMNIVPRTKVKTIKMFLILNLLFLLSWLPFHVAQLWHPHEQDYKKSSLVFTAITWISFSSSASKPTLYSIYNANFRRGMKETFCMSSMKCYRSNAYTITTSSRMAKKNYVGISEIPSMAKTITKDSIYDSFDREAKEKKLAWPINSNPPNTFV

[26] = target: Corticotropin-releasing factor receptor 2 (Homo sapiens) (UniProt Q13324); experiment: RLU of CRHR2 at 1.0 µM in the […] PRESTO-Tango GPCRome screen; details: Compound concentration 1.0 uM
[27] = target: Probable G-protein coupled receptor 63 (Homo sapiens) (UniProt Q9BZJ6); experiment: RLU of GPR63 at 1.0 µM in the […] PRESTO-Tango GPCRome screen; details: Compound concentration 1.0 uM
[28] = target: G-protein coupled receptor 20 (Homo sapiens) (UniProt Q99678); experiment: RLU of GPR20 at 1.0 µM in the […] PRESTO-Tango GPCRome screen; details: Compound concentration 1.0 uM
Sequence of G-protein coupled receptor 20 (Homo sapiens) (Q99678 whole entry): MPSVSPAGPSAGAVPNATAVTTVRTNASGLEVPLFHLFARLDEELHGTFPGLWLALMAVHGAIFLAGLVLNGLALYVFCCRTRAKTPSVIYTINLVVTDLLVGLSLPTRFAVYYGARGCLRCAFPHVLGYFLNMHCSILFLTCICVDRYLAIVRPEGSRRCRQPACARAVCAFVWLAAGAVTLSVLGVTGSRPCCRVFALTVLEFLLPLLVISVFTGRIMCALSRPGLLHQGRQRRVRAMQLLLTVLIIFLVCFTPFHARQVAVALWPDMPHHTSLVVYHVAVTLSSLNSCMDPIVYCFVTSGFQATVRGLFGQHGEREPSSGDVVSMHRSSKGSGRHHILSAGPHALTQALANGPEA

[29] = target: Type-1 angiotensin II receptor (Homo sapiens, UniProt P30556); experiment: IP-One assay (AGTR1), agonist mode at up to 50 µM; type: functional; parameters: compound concentration < 50 uM
[30] = target: Prostacyclin receptor (Homo sapiens) (UniProt P43119); experiment: RLU of PTGIR at 1.0 µM in the […] PRESTO-Tango GPCRome screen; details: Compound concentration 1.0 uM
[31] = target: N-formyl peptide receptor 3 (Homo sapiens) (UniProt P25089); experiment: RLU of FPR3 at 1.0 µM in the […] PRESTO-Tango GPCRome screen; details: Compound concentration 1.0 uM
[32] = target: Relaxin-3 receptor 1 (Homo sapiens) (UniProt Q9NSD7); experiment: RLU of RXFP3 at 1.0 µM in the […] PRESTO-Tango GPCRome screen; details: Compound concentration 1.0 uM
[33] = target: Mas-related G-protein coupled receptor member D (Homo sapiens) (UniProt Q8TDS7); experiment: RLU of MRGPRD at 1.0 µM in the […] PRESTO-Tango GPCRome screen; details: Compound concentration 1.0 uM
Sequence of Mas-related G-protein coupled receptor member D (Homo sapiens) (Q8TDS7 whole entry): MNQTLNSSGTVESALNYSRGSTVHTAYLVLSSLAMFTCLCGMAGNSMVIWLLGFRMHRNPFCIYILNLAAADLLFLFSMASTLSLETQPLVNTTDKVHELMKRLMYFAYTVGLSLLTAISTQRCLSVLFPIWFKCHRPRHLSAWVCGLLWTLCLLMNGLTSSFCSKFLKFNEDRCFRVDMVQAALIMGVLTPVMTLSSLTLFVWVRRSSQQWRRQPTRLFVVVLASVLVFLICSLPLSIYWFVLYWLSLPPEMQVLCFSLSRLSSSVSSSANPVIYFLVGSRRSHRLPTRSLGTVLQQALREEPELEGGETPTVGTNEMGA

[34] = target: 5-hydroxytryptamine receptor 2C (Homo sapiens) (UniProt P28335); experiment: RLU of HTR2C at 1.0 µM in the […] PRESTO-Tango GPCRome screen; details: Compound concentration 1.0 uM
Sequence of 5-hydroxytryptamine receptor 2C (Homo sapiens) (P28335 whole entry): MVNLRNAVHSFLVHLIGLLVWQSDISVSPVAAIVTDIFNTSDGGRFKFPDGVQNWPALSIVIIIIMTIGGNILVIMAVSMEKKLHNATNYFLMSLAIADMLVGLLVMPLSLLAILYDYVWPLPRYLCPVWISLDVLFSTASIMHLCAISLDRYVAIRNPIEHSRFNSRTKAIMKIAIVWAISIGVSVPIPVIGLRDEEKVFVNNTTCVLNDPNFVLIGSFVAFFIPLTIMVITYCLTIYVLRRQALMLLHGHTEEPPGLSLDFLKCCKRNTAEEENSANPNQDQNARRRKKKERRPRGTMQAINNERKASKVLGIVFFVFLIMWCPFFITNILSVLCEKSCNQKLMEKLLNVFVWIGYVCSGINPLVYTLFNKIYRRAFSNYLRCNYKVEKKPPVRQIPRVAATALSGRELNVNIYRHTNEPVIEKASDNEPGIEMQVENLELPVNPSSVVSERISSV

[35] = target: Sphingosine 1-phosphate receptor 1 (Homo sapiens) (UniProt P21453); experiment: RLU of S1PR1 at 1.0 µM in the […] PRESTO-Tango GPCRome screen; details: Compound concentration 1.0 uM

RLU [1]: -824 | RLU [2]: 481 | RLU [3]: 12900 | RLU [4]: 1330 | RLU [5]: 2200 | RLU [6]: 9130 | RLU [7]: 812 | RLU [8]: 464 | RLU [9]: 1690 | RLU [10]: -1390 | RLU [11]: 3390 | RLU [12]: 1810 | RLU [13]: 77.2 | RLU [14]: 342 | RLU [15]: 5930 | RLU [16]: 856 | RLU [17]: 897 | RLU [18]: -1250 | RLU [19]: -187 | RLU [20]: 432 | RLU [21]: -1500 | RLU [22]: -4100 | RLU [23]: 3090 | RLU [24]: -71.4 | RLU [25]: 1530 | RLU [26]: 410 | RLU [27]: -87.9 | RLU [28]: -1200 | EC50 [29]: > 50 µM (not active) | RLU [30]: -408 | RLU [31]: 2840 | RLU [32]: 6610 | RLU [33]: -630 | RLU [34]: 1050 | RLU [35]: 11000
Compound: CCCCC(=O)N1CC2(C1)CN(c1ccccc1-c1nnn[nH]1)C2
